In US20100240711A1, “SOLID PREPARATION COMPRISING NPYY5 RECEPTOR ANTAGONIST” (SHIONOGI & CO., LTD., priority 2007, published 2010):
≈ marks a conversion by molar mass, not a printed value.

Assay: Solubility of S-2367 in water (Japanese Pharmacopoeia, Dissolution Test, Second Solution)
Assay type: physicochemical
Settings: 37 °C, pH 6.8, aqueous buffer
Excerpt: A particularly preferable compound is trans-N-(5-trifluoromethylpyridin-2-yl)-4-(tertiarybutylsulfonylamino)cyclohexanecarboxamide (S-2367). The compound is a crystal under a room temperature.
The NPYY5 receptor antagonist of the present invention is not particularly limited as far as it is a drug which can be orally administered, but is preferably a drug having low solubility in water, so-called poorly water-soluble drug.

In the case of `CC(C)(C)S(=O)(=O)N[C@H]1CC[C@H](C(=O)Nc2ccc(C(F)(F)F)cn2)CC1` [Example S-2367, trans-N-(5-trifluoromethylpyridin-2-yl)-4-(tertiarybutylsulfonylamino)cyclohexanecarboxamide], the solubility is reported as roughly 3.5 µg/mL (≈ 8.59 µM).
